We go through 26 molecules from ChEMBL document CHEMBL1933047, “Novel poly(ADP-ribose) polymerase-1 inhibitors” (Bioorg Med Chem Lett, 2012).

One may read the inhibition as the change of the read-out against control, counted positive when it falls. The IC50 is the concentration that gives 50% inhibition.

In assay [1] the target is Poly [ADP-ribose] polymerase 1 (Rattus norvegicus) (UniProt P27008). As to the kind of experiment: Inhibition of PARP1 in rat PC12 cells assessed as NAD+ recovery at 30 uM pre-treated for 1 hr before hydrogen peroxide addition followed by washout and compound treated again for 1 hr relative to 5H-phenanthridin-6-one. Type of assay: cell-based. The conditions noted are these: PC-12.

Assay [2] shares this target. The experiment in a line: Inhibition of PARP1 in rat PC12 cells assessed as NAD+ recovery at 1 uM pre-treated for 1 hr before hydrogen peroxide addition followed by washout and compound treated again for 1 hr relative to control. The assay is classed as cell-based. The note with it: PC-12.
For assay [3] the target is unchanged. The experiment in a line: Inhibition of PARP1 in rat PC12 cells assessed as NAD+ recovery at 10 uM pre-treated for 1 hr before hydrogen peroxide addition followed by washout and compound treated again for 1 hr relative to 5H-phenanthridin-6-one. The assay is classed as cell-based. The note with it: PC-12.
Assay [4] addresses Poly [ADP-ribose] polymerase 1 (Homo sapiens, UniProt P09874). The experiment in a line: Inhibition of recombinant human PARP1 by in vitro assay.
The target in assay [5] is Poly [ADP-ribose] polymerase 1 (Rattus norvegicus) (UniProt P27008). As to the kind of experiment: Inhibition of PARP1 in rat PC12 cells assessed as NAD+ recovery at 3 uM pre-treated for 1 hr before hydrogen peroxide addition followed by washout and compound treated again for 1 hr relative to 5H-phenanthridin-6-one. The assay is classed as cell-based. The note with it: PC-12.

Sequence of Poly [ADP-ribose] polymerase 1 (Rattus norvegicus) (P27008 whole entry): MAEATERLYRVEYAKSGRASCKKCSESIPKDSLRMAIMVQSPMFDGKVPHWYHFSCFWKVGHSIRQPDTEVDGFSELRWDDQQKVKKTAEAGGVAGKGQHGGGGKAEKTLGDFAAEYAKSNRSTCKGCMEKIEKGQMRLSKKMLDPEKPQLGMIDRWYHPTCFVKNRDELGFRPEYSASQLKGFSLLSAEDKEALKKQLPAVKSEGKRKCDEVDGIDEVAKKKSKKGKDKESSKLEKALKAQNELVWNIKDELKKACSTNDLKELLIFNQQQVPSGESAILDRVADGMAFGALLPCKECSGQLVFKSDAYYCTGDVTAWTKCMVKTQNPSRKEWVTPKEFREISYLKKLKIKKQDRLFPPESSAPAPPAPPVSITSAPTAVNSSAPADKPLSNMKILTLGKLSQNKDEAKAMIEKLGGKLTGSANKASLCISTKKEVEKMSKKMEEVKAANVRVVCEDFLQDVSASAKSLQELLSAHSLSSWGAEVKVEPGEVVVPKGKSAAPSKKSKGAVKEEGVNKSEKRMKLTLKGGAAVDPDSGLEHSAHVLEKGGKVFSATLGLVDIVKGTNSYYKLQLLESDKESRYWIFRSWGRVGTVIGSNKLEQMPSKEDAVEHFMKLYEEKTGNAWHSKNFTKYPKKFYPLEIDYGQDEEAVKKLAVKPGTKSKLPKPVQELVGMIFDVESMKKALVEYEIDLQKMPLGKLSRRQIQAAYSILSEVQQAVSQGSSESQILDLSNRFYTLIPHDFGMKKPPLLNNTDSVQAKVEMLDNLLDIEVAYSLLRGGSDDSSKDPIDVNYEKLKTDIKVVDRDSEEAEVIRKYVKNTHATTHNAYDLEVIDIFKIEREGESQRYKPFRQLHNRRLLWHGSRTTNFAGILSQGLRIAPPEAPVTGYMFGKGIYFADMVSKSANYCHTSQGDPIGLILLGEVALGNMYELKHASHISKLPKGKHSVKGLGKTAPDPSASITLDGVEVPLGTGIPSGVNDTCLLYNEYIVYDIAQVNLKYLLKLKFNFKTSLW
Sequence of Poly [ADP-ribose] polymerase 1 (P09874 whole entry): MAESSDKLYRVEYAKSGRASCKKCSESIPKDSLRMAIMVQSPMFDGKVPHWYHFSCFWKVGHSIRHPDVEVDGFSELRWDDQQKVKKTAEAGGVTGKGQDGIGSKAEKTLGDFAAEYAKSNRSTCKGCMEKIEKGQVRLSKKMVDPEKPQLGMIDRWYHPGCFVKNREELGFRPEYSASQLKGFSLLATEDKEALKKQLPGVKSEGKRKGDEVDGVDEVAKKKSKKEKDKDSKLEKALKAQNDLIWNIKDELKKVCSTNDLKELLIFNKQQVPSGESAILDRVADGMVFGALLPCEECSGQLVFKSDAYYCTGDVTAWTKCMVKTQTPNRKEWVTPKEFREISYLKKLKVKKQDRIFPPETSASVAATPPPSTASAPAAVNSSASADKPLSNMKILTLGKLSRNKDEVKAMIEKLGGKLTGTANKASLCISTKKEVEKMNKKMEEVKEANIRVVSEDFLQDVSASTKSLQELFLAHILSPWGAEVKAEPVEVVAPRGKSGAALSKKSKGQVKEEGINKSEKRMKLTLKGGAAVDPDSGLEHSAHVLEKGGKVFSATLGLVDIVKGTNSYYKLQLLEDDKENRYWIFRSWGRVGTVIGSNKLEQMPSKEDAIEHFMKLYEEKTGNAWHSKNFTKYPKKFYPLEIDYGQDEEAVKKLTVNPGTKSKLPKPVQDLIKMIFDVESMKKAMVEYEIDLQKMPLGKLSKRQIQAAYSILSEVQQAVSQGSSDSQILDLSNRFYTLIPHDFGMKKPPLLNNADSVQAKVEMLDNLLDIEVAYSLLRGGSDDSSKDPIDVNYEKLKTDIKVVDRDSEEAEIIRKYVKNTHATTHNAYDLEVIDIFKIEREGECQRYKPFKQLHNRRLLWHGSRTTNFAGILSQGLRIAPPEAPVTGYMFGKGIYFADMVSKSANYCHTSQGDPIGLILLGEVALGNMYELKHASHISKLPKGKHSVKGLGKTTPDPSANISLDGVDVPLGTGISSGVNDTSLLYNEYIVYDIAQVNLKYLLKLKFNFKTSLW

In the case of `O=C(CCC(=O)N1CCCCC1)c1ccc2[nH]c3c4c(c5c(c3c2c1)C(=O)NC5=O)CCC4`, the inhibition worked out at 59% in assay [1] and 55% in assay [2].
Take `CN1CCN(CC(=O)c2ccc3[nH]c4c5c(c6c(c4c3c2)C(=O)NC6=O)CCC5)CC1`: the inhibition is 7% in assay [2] and 43% in assay [3].
Consider `COC(=O)[C@@H]1CCCN1CC(=O)c1ccc2[nH]c3c4c(c5c(c3c2c1)C(=O)NC5=O)CCC4`, for which the inhibition in assay [1] stood at 100%; in assay [2], 27%. Also, the half-maximal inhibitory concentration (IC50) in assay [4] is 12 nM.
Consider `O=C(CCC(=O)N1CCNCC1)c1ccc2[nH]c3c4c(c5c(c3c2c1)C(=O)NC5=O)CCC4`, for which the inhibition in assay [2] came to 10%.
As to `O=C(CN1CCOCC1)c1ccc2[nH]c3c4c(c5c(c3c2c1)C(=O)NC5=O)CCC4`, the inhibition stood at 38% in assay [2] and 63% in assay [3]. In assay [4], the IC50 is 13 nM.
Regarding `CC(C)(C)OC(=O)[C@@H]1CCCN1CC(=O)c1ccc2[nH]c3c4c(c5c(c3c2c1)C(=O)NC5=O)CCC4`, the inhibition in assay [1] was 88%; in assay [2] it was 24%.
`CN1N=C(c2ccc3[nH]c4c5c(c6c(c4c3c2)C(=O)NC6=O)CCC5)CCC1=O`: the inhibition in assay [2] came out at 29%.
`CC(C)(C)OC(=O)NCCNC(=O)CCC(=O)c1ccc2[nH]c3c4c(c5c(c3c2c1)C(=O)NC5=O)CCC4`: the inhibition in assay [1] was determined as 48%; in assay [2] it was 26%.
For `CN(CC(=O)O)CC(=O)c1ccc2[nH]c3c4c(c5c(c3c2c1)C(=O)NC5=O)CCC4`, in that order: 45% and 14%.
For the molecule `NC(=O)[C@@H]1CCCN1C(=O)CCC(=O)c1ccc2[nH]c3c4c(c5c(c3c2c1)C(=O)NC5=O)CCC4`, the inhibition in assay [2] is 11%.
On to `O=C(CCC(=O)N1CCCC1)c1ccc2[nH]c3c4c(c5c(c3c2c1)C(=O)NC5=O)CCC4`, for which the inhibition was found to be 92% in assay [1] and 32% in assay [2].
For `CN(CC(=O)OC(C)(C)C)CC(=O)c1ccc2[nH]c3c4c(c5c(c3c2c1)C(=O)NC5=O)CCC4`, the inhibition in assay [1] amounted to 73%; in assay [2] it was 14%. Also, the IC50 in assay [4] was 19 nM.
For `CC(C)(C)OC(=O)N1CCN(C(=O)CCC(=O)c2ccc3[nH]c4c5c(c6c(c4c3c2)C(=O)NC6=O)CCC5)CC1`, the values for the inhibition in assay [1] and in assay [2] were 29% and 19%, respectively.
`O=C(CN1CCC[C@H]1C(=O)O)c1ccc2[nH]c3c4c(c5c(c3c2c1)C(=O)NC5=O)CCC4`: the results for the inhibition in assay [1] and in assay [2] were 43% and 14%, respectively. In addition, in assay [4], the IC50 was 7 nM.
Take `O=C(CCC(=O)N1CCC[C@H]1C(=O)O)c1ccc2[nH]c3c4c(c5c(c3c2c1)C(=O)NC5=O)CCC4`: the results for the inhibition in assay [2] and in assay [5] were 4% and 14%, respectively. For the same molecule, the IC50 in assay [4] was 2 nM.
Turning to `O=C(CCC(=O)N1CCOCC1)c1ccc2[nH]c3c4c(c5c(c3c2c1)C(=O)NC5=O)CCC4`, the inhibition in assay [1] is 65%; in assay [2] it was 38%.
As for `CC(C)(C)OC(=O)[C@@H]1CCCN1C(=O)CCC(=O)c1ccc2[nH]c3c4c(c5c(c3c2c1)C(=O)NC5=O)CCC4`, the inhibition in assay [1] was 98%; in assay [2], 39%.
Take `O=C(O)CCC(=O)c1ccc2[nH]c3c4c(c5c(c3c2c1)C(=O)NC5=O)CCC4`: the results for the inhibition in assay [1] and in assay [2] were 42% and 8%, respectively.
Regarding `O=C(Cn1cncn1)c1ccc2[nH]c3c4c(c5c(c3c2c1)C(=O)NC5=O)CCC4`, the inhibition worked out at 55% in assay [1] and 25% in assay [2].
Regarding `O=C(CCC(=O)c1ccc2[nH]c3c4c(c5c(c3c2c1)C(=O)NC5=O)CCC4)NCCO`, the values for the inhibition in assay [2] and in assay [3] were 24% and 26%, respectively.
On to `NCCNC(=O)CCC(=O)c1ccc2[nH]c3c4c(c5c(c3c2c1)C(=O)NC5=O)CCC4`, for which the inhibition was 14% in assay [2] and 32% in assay [3].
`O=C1NC(=O)c2c1c1c(c3[nH]c4ccccc4c23)CCC1`: the figures for the inhibition in assay [1] and in assay [2] were 42% and 30%, respectively.
`O=C1CCC(c2ccc3[nH]c4c5c(c6c(c4c3c2)C(=O)NC6=O)CCC5)=NN1`: the values for the inhibition in assay [2] and in assay [3] were 29% and 49%, respectively.
For the molecule `O=C(CN1CCCCC1)c1ccc2[nH]c3c4c(c5c(c3c2c1)C(=O)NC5=O)CCC4`, the figures for the inhibition in assay [1] and in assay [2] were 50% and 14%, respectively.
As to `CCN(CC)C(=O)CCC(=O)c1ccc2[nH]c3c4c(c5c(c3c2c1)C(=O)NC5=O)CCC4`, the inhibition in assay [1] amounted to 78%; in assay [2] it was 41%.
In the same order, the values of `CCN(CC)CC(=O)c1ccc2[nH]c3c4c(c5c(c3c2c1)C(=O)NC5=O)CCC4` are 70% and 10%.
